The supplement of paper PMC10307832

Legend:
Assay in all cases: relative viability (nuclei count vs DMSO), 5 days (fraction); higher = more cells survive
SK-MES-1 = tested on: SK-MES-1
How it was run: (§1)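 Relative viability was taken as the ratio of nuclei in treated wells to nuclei in vehicle wells. Lung cancer cell lines in 1536-well plates received compounds by pin tool one day after seeding, either one drug alone or a fixed anchor-drug dose plus five library-drug doses (not always all listed) in √10 steps. Nuclei were counted on 4× images after 5 days of treatment, and values are medians of duplicate plates.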

NCI-H1563 = tested on: NCI-H1563
How it was run: as §1

PC-3 [JPC-3] = tested on: PC-3 [JPC-3]
How it was run: as §1

NCI-H520 = tested on: NCI-H520
How it was run: as §1

NCI-H23 = tested on: NCI-H23
How it was run: as §1

NCI-H1755 = tested on: NCI-H1755
How it was run: as §1

NCI-H1792 = tested on: NCI-H1792
How it was run: as §1

LK-2 = tested on: LK-2
How it was run: as §1

NCI-H2170 = tested on: NCI-H2170
How it was run: as §1

NCI-H1666 = tested on: NCI-H1666
How it was run: as §1

NCI-H1944 = tested on: NCI-H1944
How it was run: as §1

NCI-H596 = tested on: NCI-H596
How it was run: as §1

NCI-H1975 = tested on: NCI-H1975
How it was run: as §1

EMC-BAC-2 = tested on: EMC-BAC-2
How it was run: as §1

EKVX = tested on: EKVX
How it was run: as §1

HCC-366 = tested on: HCC-366
How it was run: as §1

A-427 = tested on: A-427
How it was run: as §1

H3255 = tested on: H3255
How it was run: as §1

NCI-H1734 = tested on: NCI-H1734
How it was run: as §1

COR-L 105 = tested on: COR-L 105
How it was run: as §1

LOU-NH91 = tested on: LOU-NH91
How it was run: as §1

**Q.** What does the source list for `COc1cc(N2CCC(C(N)=O)CC2)ccc1Nc1nc(N)c(Cl)c(Nc2ccccc2S(=O)(=O)C(C)C)n1` [HG-5-88-01] + CS(=O)(=O)CCNCc1ccc(-c2ccc3ncnc(Nc4ccc(OCc5cccc(F)c5)c(Cl)c4)c3c2)o1 [Lapatinib] (partner 2 µM)?
**A.** relative viability (SK-MES-1; first compound 0.04 µM): 0.442; relative viability (SK-MES-1; first compound 0.1265 µM): 0.453; relative viability (SK-MES-1; first compound 0.4 µM): 0.407; relative viability (SK-MES-1; first compound 1.265 µM): 0.477; relative viability (SK-MES-1; first compound 4 µM): 0.469; relative viability (NCI-H1563; first compound 0.04 µM): 0.872; relative viability (NCI-H1563; first compound 0.1265 µM): 0.941; relative viability (NCI-H1563; first compound 0.4 µM): 1.03; relative viability (NCI-H1563; first compound 1.265 µM): 0.882; relative viability (NCI-H1563; first compound 4 µM): 1.24; relative viability (PC-3 [JPC-3]; first compound 0.04 µM): 0.408; relative viability (PC-3 [JPC-3]; first compound 0.1265 µM): 0.466; relative viability (PC-3 [JPC-3]; first compound 0.4 µM): 0.39; relative viability (PC-3 [JPC-3]; first compound 1.265 µM): 0.434; relative viability (PC-3 [JPC-3]; first compound 4 µM): 0.25; relative viability (NCI-H520; first compound 0.04 µM): 0.825; relative viability (NCI-H520; first compound 0.1265 µM): 0.896; relative viability (NCI-H520; first compound 0.4 µM): 0.401; relative viability (NCI-H520; first compound 1.265 µM): 0.813; relative viability (NCI-H520; first compound 4 µM): 0.795; relative viability (NCI-H23; first compound 0.04 µM): 1.05; relative viability (NCI-H23; first compound 0.1265 µM): 1.23; relative viability (NCI-H23; first compound 0.4 µM): 0.874; relative viability (NCI-H23; first compound 1.265 µM): 1.05; relative viability (NCI-H23; first compound 4 µM): 0.393; relative viability (NCI-H1755; first compound 0.1265 µM): 1.04; relative viability (NCI-H1755; first compound 0.4 µM): 0.986; relative viability (NCI-H1755; first compound 1.265 µM): 1.02; relative viability (NCI-H1755; first compound 4 µM): 1.15; relative viability (NCI-H1792; first compound 0.04 µM): 0.792; relative viability (NCI-H1792; first compound 0.1265 µM): 0.892; relative viability (NCI-H1792; first compound 0.4 µM): 0.864; relative viability (NCI-H1792; first compound 1.265 µM): 0.879; relative viability (NCI-H1792; first compound 4 µM): 0.888; relative viability (LK-2; first compound 0.04 µM): 0.94; relative viability (LK-2; first compound 0.1265 µM): 0.841; relative viability (LK-2; first compound 0.4 µM): 0.792; relative viability (LK-2; first compound 1.265 µM): 0.42; relative viability (LK-2; first compound 4 µM): 0.885; relative viability (NCI-H2170; first compound 0.04 µM): 0.247; relative viability (NCI-H2170; first compound 0.1265 µM): 0.275; relative viability (NCI-H2170; first compound 0.4 µM): 0.251; relative viability (NCI-H2170; first compound 1.265 µM): 0.267; relative viability (NCI-H2170; first compound 4 µM): 0.251; relative viability (NCI-H1666; first compound 0.04 µM): 0.742; relative viability (NCI-H1666; first compound 0.1265 µM): 0.742; relative viability (NCI-H1666; first compound 0.4 µM): 0.5; relative viability (NCI-H1666; first compound 1.265 µM): 0.463; relative viability (NCI-H1666; first compound 4 µM): 0.293; relative viability (NCI-H1944; first compound 0.04 µM): 0.656; relative viability (NCI-H1944; first compound 0.1265 µM): 0.84; relative viability (NCI-H1944; first compound 0.4 µM): 0.78; relative viability (NCI-H1944; first compound 1.265 µM): 0.861; relative viability (NCI-H1944; first compound 4 µM): 0.648; relative viability (NCI-H596; first compound 0.04 µM): 0.956; relative viability (NCI-H596; first compound 0.1265 µM): 1.03; relative viability (NCI-H596; first compound 0.4 µM): 1.06; relative viability (NCI-H596; first compound 1.265 µM): 1.12; relative viability (NCI-H596; first compound 4 µM): 0.781; relative viability (NCI-H1975; first compound 0.04 µM): 0.896; relative viability (NCI-H1975; first compound 0.1265 µM): 0.907; relative viability (NCI-H1975; first compound 0.4 µM): 0.723; relative viability (NCI-H1975; first compound 1.265 µM): 0.736; relative viability (NCI-H1975; first compound 4 µM): 0.447; relative viability (EMC-BAC-2; first compound 0.04 µM): 0.928; relative viability (EMC-BAC-2; first compound 0.1265 µM): 0.93; relative viability (EMC-BAC-2; first compound 0.4 µM): 0.802; relative viability (EMC-BAC-2; first compound 1.265 µM): 0.906; relative viability (EMC-BAC-2; first compound 4 µM): 0.684; relative viability (EKVX; first compound 0.04 µM): 0.212; relative viability (EKVX; first compound 0.1265 µM): 0.215; relative viability (EKVX; first compound 0.4 µM): 0.184; relative viability (EKVX; first compound 4 µM): 0.15; relative viability (HCC-366; first compound 0.04 µM): 1.04; relative viability (HCC-366; first compound 0.1265 µM): 1.04; relative viability (HCC-366; first compound 0.4 µM): 0.863; relative viability (HCC-366; first compound 1.265 µM): 1.08; relative viability (HCC-366; first compound 4 µM): 1.29; relative viability (A-427; first compound 0.04 µM): 0.976; relative viability (A-427; first compound 0.1265 µM): 0.984; relative viability (A-427; first compound 0.4 µM): 0.978; relative viability (A-427; first compound 1.265 µM): 1.04; relative viability (A-427; first compound 4 µM): 0.589; relative viability (H3255; first compound 0.04 µM): 0.25; relative viability (H3255; first compound 0.1265 µM): 0.249; relative viability (H3255; first compound 0.4 µM): 0.244; relative viability (H3255; first compound 4 µM): 0.212; relative viability (NCI-H1734; first compound 0.04 µM): 1; relative viability (NCI-H1734; first compound 0.1265 µM): 1.08; relative viability (NCI-H1734; first compound 0.4 µM): 1.02; relative viability (NCI-H1734; first compound 1.265 µM): 0.982; relative viability (NCI-H1734; first compound 4 µM): 0.969; relative viability (COR-L 105; first compound 0.04 µM): 0.346; relative viability (COR-L 105; first compound 0.1265 µM): 0.375; relative viability (COR-L 105; first compound 0.4 µM): 0.329; relative viability (COR-L 105; first compound 1.265 µM): 0.336; relative viability (COR-L 105; first compound 4 µM): 0.334; relative viability (LOU-NH91; first compound 0.04 µM): 0.743; relative viability (LOU-NH91; first compound 0.1265 µM): 0.673; relative viability (LOU-NH91; first compound 0.4 µM): 0.594; relative viability (LOU-NH91; first compound 1.265 µM): 0.592; relative viability (LOU-NH91; first compound 4 µM): 0.608
